# According to PMC10709440, “High-throughput ligand profile characterization in novel cell lines expressing seven heterologous insect olfactory receptors for the detection of volatile plant biomarkers” (Scientific Reports, 2023):
# Like-named read-outs stand apart in the source and are kept apart here.
# Tests used:
# Drosophila OR13a = target: T1, Drosophila OR13a (Drosophila melanogaster, UniProt Q9VXL0); experiment: Calcium ion fluorescence (GCaMP6) assay, OR13a stable HEK293 cell line; format: cell-based
# T1 construct: expressed in transfected cells
# T1 sequence (Q9VXL0 1-418): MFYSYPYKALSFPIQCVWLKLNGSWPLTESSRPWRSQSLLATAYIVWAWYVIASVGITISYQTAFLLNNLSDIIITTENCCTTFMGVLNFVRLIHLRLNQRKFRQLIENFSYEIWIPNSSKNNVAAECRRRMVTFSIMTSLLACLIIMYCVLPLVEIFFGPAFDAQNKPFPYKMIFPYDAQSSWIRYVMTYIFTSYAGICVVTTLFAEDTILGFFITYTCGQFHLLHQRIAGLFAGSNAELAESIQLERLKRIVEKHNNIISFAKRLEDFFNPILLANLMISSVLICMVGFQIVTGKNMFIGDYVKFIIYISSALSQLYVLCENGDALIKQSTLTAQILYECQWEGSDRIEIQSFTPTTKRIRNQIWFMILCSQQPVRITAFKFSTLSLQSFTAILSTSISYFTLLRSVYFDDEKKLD
# T1 sequence (Q9VNB5 1-486 partner): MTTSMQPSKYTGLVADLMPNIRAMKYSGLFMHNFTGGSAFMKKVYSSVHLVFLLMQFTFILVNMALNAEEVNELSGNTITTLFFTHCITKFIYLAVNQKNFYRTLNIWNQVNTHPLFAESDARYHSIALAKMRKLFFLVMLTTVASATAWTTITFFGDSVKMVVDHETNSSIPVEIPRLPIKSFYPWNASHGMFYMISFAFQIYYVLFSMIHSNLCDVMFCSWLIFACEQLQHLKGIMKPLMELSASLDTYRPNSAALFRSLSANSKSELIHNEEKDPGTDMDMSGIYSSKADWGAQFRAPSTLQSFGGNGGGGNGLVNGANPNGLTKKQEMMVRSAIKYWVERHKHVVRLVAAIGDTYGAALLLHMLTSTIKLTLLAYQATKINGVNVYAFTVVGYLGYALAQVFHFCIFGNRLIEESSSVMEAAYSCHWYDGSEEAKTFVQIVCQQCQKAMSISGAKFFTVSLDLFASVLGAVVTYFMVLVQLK
# How it was run: (§1)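 Responses are VUAA1-normalized ΔF: each VOC-evoked calcium signal, (FMAX−F0)/F0 over 30 s after injection, divided by the same line's mean 50 µM VUAA1 response. Cells were doxycycline-induced HEK293 with GCaMP6 and the cognate Drosophila OR, in HEPES buffer pH 7.3; ligands tested 0.01–100 μM.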
# Drosophila OR47a = target: T2, Drosophila OR47a (Drosophila melanogaster, UniProt P81921); experiment: Calcium ion fluorescence (GCaMP6) assay, OR47a stable HEK293 cell line; format: cell-based; conditions: for Average response: mean of biological replicates; for activation at 1 µM / activation at 10 µM / activation at 100 µM: HEK293, read-out: OR47a response (VUAA1-normalized response)
# T2 construct: expressed in transfected cells
# T2 sequence (P81921 1-385): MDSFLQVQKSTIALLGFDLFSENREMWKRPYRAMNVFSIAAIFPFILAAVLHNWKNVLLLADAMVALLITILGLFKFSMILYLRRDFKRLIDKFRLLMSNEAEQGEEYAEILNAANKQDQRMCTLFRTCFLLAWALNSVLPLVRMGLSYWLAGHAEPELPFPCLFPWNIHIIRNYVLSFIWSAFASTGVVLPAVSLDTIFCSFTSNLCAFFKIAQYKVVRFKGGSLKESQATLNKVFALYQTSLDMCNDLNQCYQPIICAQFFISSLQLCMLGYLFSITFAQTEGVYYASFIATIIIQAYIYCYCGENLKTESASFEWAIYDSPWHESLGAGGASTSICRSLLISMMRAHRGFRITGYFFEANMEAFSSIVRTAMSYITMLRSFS
# T2 sequence (Q9VNB5 1-486 partner): T1 sequence (Q9VNB5 1-486 partner)
# How it was run: as §1
# [1] = HEK293, read-out: OR13a Average response (VUAA1-normalized), 1 μM VOC, 50 μM VUAA1 = 1, responses not exceeding 0.05 considered 0
# [2] = HEK293, read-out: OR13a Average response (VUAA1-normalized), 10 μM VOC, 50 μM VUAA1 = 1, responses not exceeding 0.05 considered 0
# [3] = HEK293, read-out: OR13a Average response (VUAA1-normalized), 100 μM VOC, 50 μM VUAA1 = 1, responses not exceeding 0.05 considered 0
# [4] = ligand concentration 1 (unit not given), 0.05 threshold, values below shown as 0
# [5] = ligand concentration 10 (unit not given), 0.05 threshold, values below shown as 0
# [6] = ligand concentration 100 (unit not given), 0.05 threshold, values below shown as 0
# [7] = OR47a cell line, odorant cc. 1 µM
# [8] = OR47a cell line, odorant cc. 10 µM
# [9] = OR47a cell line, odorant cc. 100 µM
# [10] = HEK293, read-out: OR13a response (VUAA1-normalized response), VOC concentration 1 μM
# [11] = HEK293, read-out: OR13a response (VUAA1-normalized response), VOC concentration 10 μM
# [12] = HEK293, read-out: OR13a response (VUAA1-normalized response), VOC concentration 100 μM
# [13] = concentration 1, normalized fluorescence change, values below 0.05 threshold given as 0
# [14] = concentration 10, normalized fluorescence change, values below 0.05 threshold given as 0
# [15] = concentration 100, normalized fluorescence change, values below 0.05 threshold given as 0
# [16] = ligand concentration 1 (unit not given), threshold 0.05, below shown as 0
# [17] = ligand concentration 10 (unit not given), threshold 0.05, below shown as 0
# [18] = ligand concentration 100 (unit not given), threshold 0.05, below shown as 0
Compound,activation at 1 µM (Drosophila OR13a; [1]) [%],activation at 10 µM (Drosophila OR13a; [2]) [%],activation at 100 µM (Drosophila OR13a; [3]) [%],Average response (Drosophila OR47a; [7]),Average response (Drosophila OR47a; [8]),Average response (Drosophila OR47a; [9]),activation at 1 µM (Drosophila OR13a; [10]) [%],activation at 10 µM (Drosophila OR13a; [11]) [%],activation at 100 µM (Drosophila OR13a; [12]) [%],DF norm AVERAGE OR13a (Drosophila OR13a; [13]),DF norm AVERAGE OR13a (Drosophila OR13a; [14]),DF norm AVERAGE OR13a (Drosophila OR13a; [15]),activation at 1 µM (Drosophila OR47a) [%],activation at 10 µM (Drosophila OR47a) [%],activation at 100 µM (Drosophila OR47a) [%],DF norm AVERAGE OR47a (Drosophila OR47a; [13]),DF norm AVERAGE OR47a (Drosophila OR47a; [14]),DF norm AVERAGE OR47a (Drosophila OR47a; [15]),also measured
CCCCCCCCCCCCCC [tetradecane],2.63,1.68,0,0.02,0.03,0.00,,,,,,,,,,,,,"OR13a response (VUAA1-normalized) at 1 μM (Drosophila OR13a; OR13a cell line, VOC concentration 1 μM): 0.00; OR13a response (VUAA1-normalized) at 10 μM (Drosophila OR13a; OR13a cell line, VOC concentration 10 μM): 0.00; OR13a response (VUAA1-normalized) at 100 μM (Drosophila OR13a; OR13a cell line, VOC concentration 100 μM): 0.00; DF norm AVERAGE OR13a (Drosophila OR13a; [4]): 0; DF norm AVERAGE OR13a (Drosophila OR13a; [5]): 0; DF norm AVERAGE OR13a (Drosophila OR13a; [6]): 0; OR47a response (VUAA1-normalized) at 1 μM (Drosophila OR47a; OR47a cell line, VOC concentration 1 μM): 0.00; OR47a response (VUAA1-normalized) at 10 μM (Drosophila OR47a; OR47a cell line, VOC concentration 10 μM): 0.00; OR47a response (VUAA1-normalized) at 100 μM (Drosophila OR47a; OR47a cell line, VOC concentration 100 μM): 0.00; DF norm AVERAGE OR47a (Drosophila OR47a; [4]): 0; DF norm AVERAGE OR47a (Drosophila OR47a; [5]): 0; DF norm AVERAGE OR47a (Drosophila OR47a; [6]): 0"
"COc1cccc(OC)c1 [1,3-dimethoxy benzene]",0,0,3.71,0.00,0.00,0.0217,0,0,0,0,0,0,0,0,0,0,0,0,
CC1=CCC2CC1C2(C)C (stereo not drawn) [alpha-pinene],0,0,1.73,0.04,0.00,0.0468,0,0,0,,,,0,0,0,,,,DF norm AVERAGE OR13a (Drosophila OR13a; [16]): 0; DF norm AVERAGE OR13a (Drosophila OR13a; [17]): 0; DF norm AVERAGE OR13a (Drosophila OR13a; [18]): 0; DF norm AVERAGE OR47a (Drosophila OR47a; [16]): 0; DF norm AVERAGE OR47a (Drosophila OR47a; [17]): 0; DF norm AVERAGE OR47a (Drosophila OR47a; [18]): 0
CC1=CCC2C(C1)C2(C)C (stereo not drawn) [3-carene],0,0,0,0.00,0.00,0.03,0,0,0,0,0,0,0,0,0,0,0,0,
